This is an account of results in patent publication EP2197883B1, “Catecholamine derivative useful for the treatment of parkinson's disease” (H. Lundbeck A/S, priority 2007, dated 2009).

For series [1] the following is noted: man, after oral dosing; cited from earlier work.
Another series has as its system PD patients. The note with it: intravenous (IV); cited from earlier work.
The subject of series [2] is mouse model of severe dopamine depletion. The experiment in a line: Superiority model. Type of series: in vivo. The settings on record: mice. The text has this:
Both Apomorphine and L-DOPA stimulate D1 and D2-like dopamine receptors.

Structures are written as SMILES.

Turning to `CCCc1cc2c(s1)CN[C@@H]1CCc3cc(OC(C)=O)c(OC(C)=O)cc3[C@@H]21` [Adrogolide], in series [1], the oral bioavailability is recorded as about 4%. Also, the antiparkinson efficacy entry in the series on PD patients is given as “comparable to that of L-DOPA”.

Consider `CN1CCc2cccc3c2[C@H]1Cc1ccc(O)c(O)c1-3` [Apomorphine], for which the “reversal of motility deficits / restoration of locomotion” value in series [2] is listed as “able to reverse motility deficits”. Still for that read-out and setting: under `N[C@@H](Cc1ccc(O)c(O)c1)C(=O)O` [L-DOPA, (levo)-3,4-dihydroxy phenylalanine] stands “able to reverse motility deficits”.
